# In patent publication US12209087B2, “AKT1 modulators” (Alterome Therapeutics, Inc., priority 2022, dated 2025):
# Molecular target: T1, full length AKT E17K (Homo sapiens, UniProt P31749, E17K)
# T1 construct: host or cells: HEK-293 (ATCC CRL-1573)
# Experiment: NanoBRET Target Engagement (TE) Assay
# Format: cell-based
# Conditions: competitive displacement of tracer in cells, read-out: AKT1 E17K IC50
# Summary of the method: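 Compound and tracer incubated 2 h before luminescence at donor 450 nm and acceptor 600 nm, with extracellular signal inhibited. EC50 by sigmoidal variable-slope regression.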
# T1 sequence (P31749 whole entry E17K): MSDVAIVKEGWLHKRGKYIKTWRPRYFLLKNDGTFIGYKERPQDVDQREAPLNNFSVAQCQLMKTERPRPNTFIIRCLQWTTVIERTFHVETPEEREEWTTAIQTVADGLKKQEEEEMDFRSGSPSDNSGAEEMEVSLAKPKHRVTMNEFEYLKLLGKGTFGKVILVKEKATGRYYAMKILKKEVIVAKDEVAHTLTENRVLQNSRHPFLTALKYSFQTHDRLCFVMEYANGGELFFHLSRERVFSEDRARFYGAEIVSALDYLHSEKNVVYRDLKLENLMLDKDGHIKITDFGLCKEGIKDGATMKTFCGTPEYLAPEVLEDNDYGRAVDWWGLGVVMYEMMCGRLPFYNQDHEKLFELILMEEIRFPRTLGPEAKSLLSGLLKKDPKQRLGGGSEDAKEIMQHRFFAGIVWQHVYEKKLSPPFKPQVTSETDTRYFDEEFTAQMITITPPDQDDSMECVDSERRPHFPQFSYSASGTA
row,Compound,IC50
1,"N#Cc1nccc(N2CCN(Cc3ccc(-n4c(-c5cccnc5N)nc5ccc(C6=CCCCC6)nc54)cc3)CC2)n1 [Example 329, 4-(4-(4-(2-(2-Aminopyridin-3-yl)-5-(cyclohex-1-en-1-yl)-3H-imidazo[4,5-b]pyridin-3-yl)benzyl)piperazin-1-yl)pyrimidine-2-carbonitrile]",15 to 60 nM
2,"N#Cc1nccc(N2CCN(Cc3ccc(-n4c(-c5cccnc5N)nc5ccc(-c6ccc(=O)[nH]c6)nc54)cc3)CC2)n1 [Example 332, 4-(4-(4-(2-(2-Aminopyridin-3-yl)-5-(6-oxo-1,6-dihydropyridin-3-yl)-3H-imidazo[4,5-b]pyridin-3-yl)benzyl)piperazin-1-yl)pyrimidine-2-carbonitrile]",600 to 10000 nM
3,"N#Cc1ncnc(N2C[C@@H]3C[C@H]2CN3Cc2ccc(-n3c(-c4cccnc4N)nc4ccc(-c5ccccc5)nc43)cc2)n1 [Example 338, 4-((1S,4S)-5-(4-(2-(2-Aminopyridin-3-yl)-5-phenyl-3H-imidazo[4,5-b]pyridin-3-yl)benzyl)-2,5-diazabicyclo[2.2.1]heptan-2-yl)-1,3,5-triazine-2-carbonitrile]",15 to 60 nM

# Now from value to compound:
row,IC50,Compound
1,< 15 nM,"N#Cc1nccc(NC2CCN(Cc3ccc(-n4c(-c5cccnc5N)nc5ccc(-c6cccnc6F)nc54)cc3)CC2)n1 [Example 558, 4-((1-(4-(2-(2-Aminopyridin-3-yl)-5-(2-fluoropyridin-3-yl)-3H-imidazo[4,5-b]pyridin-3-yl)benzyl)piperidin-4-yl)amino)pyrimidine-2-carbonitrile]"
2,< 15 nM,"N#Cc1nccc(NC2CCN(Cc3ccc(-n4c(-c5cccnc5N)nc5ccc(N6CCCC6)nc54)cc3)CC2)n1 [Example 510, 4-((1-(4-(2-(2-Aminopyridin-3-yl)-5-(pyrrolidin-1-yl)-3H-imidazo[4,5-b]pyridin-3-yl)benzyl)piperidin-4-yl)amino)pyrimidine-2-carbonitrile]"
3,< 15 nM,"[2H]C([2H])([2H])N(c1ccnc(C#N)n1)C1CCN(Cc2ccc(-n3c(-c4cccnc4N)nc4cc(C)c(C)nc43)cc2)CC1 [Example 455, 4-((1-(4-(2-(2-Aminopyridin-3-yl)-5,6-dimethyl-3H-imidazo[4,5-b]pyridin-3-yl)benzyl)piperidin-4-yl)(methyl-d3)amino)pyrimidine-2-carbonitrile]"
4,< 15 nM,"N#Cc1nccc(NC2CCN(Cc3ccc(-n4c(-c5cccnc5N)nc5ccc(OC(F)F)nc54)cc3)CC2)n1 [Example 535, 4-((1-(4-(2-(2-Aminopyridin-3-yl)-5-(difluoromethoxy)-3H-imidazo[4,5-b]pyridin-3-yl)benzyl)piperidin-4-yl)amino)pyrimidine-2-carbonitrile]"
5,< 15 nM,"N#Cc1nccc(N2CCC3(CC2)CN(Cc2ccc(-n4c(-c5cccnc5N)nc5ccc(-c6ccc(F)cc6)nc54)cc2)C3)n1 [Example 491, 4-(2-(4-(2-(2-Aminopyridin-3-yl)-5-(4-fluorophenyl)-3H-imidazo[4,5-b]pyridin-3-yl)benzyl)-2,7-diazaspiro[3.5]nonan-7-yl)pyrimidine-2-carbonitrile]"
6,< 15 nM,"COc1cc(F)ccc1-c1ccc2nc(-c3cccnc3N)n(-c3ccc(CN4CCC(Nc5ccnc(C#N)n5)CC4)cc3)c2n1 [Example 469, 4-((1-(4-(2-(2-Aminopyridin-3-yl)-5-(4-fluoro-2-methoxyphenyl)-3H-imidazo[4,5-b]pyridin-3-yl)benzyl)piperidin-4-yl)amino)pyrimidine-2-carbonitrile]"
7,< 15 nM,"N#Cc1nccc(NC2CCN(Cc3ccc(-n4c(-c5cccnc5N)nc5ccc(C(F)(F)F)nc54)cc3)CC2)n1 [Example 410, 4-((1-(4-(2-(2-Aminopyridin-3-yl)-5-(trifluoromethyl)-3H-imidazo[4,5-b]pyridin-3-yl)benzyl)piperidin-4-yl)amino)pyrimidine-2-carbonitrile]"
8,< 15 nM,"N#Cc1ncnc(NC2CCN(Cc3ccc(-n4c(-c5cccnc5N)nc5ccc(-c6ccc(F)cc6)nc54)cc3)CC2)n1 [Example 487, 4-((1-(4-(2-(2-Aminopyridin-3-yl)-5-(4-fluorophenyl)-3H-imidazo[4,5-b]pyridin-3-yl)benzyl)piperidin-4-yl)amino)-1,3,5-triazine-2-carbonitrile]"
9,< 15 nM,"C=Cc1ccc2nc(-c3cccnc3N)n(-c3ccc(CN4CCC(Nc5ccnc(C#N)n5)CC4)cc3)c2n1 [Example 454, 4-((1-(4-(2-(2-Aminopyridin-3-yl)-5-vinyl-3H-imidazo[4,5-b]pyridin-3-yl)benzyl)piperidin-4-yl)amino)pyrimidine-2-carbonitrile]"
10,60 to 600 nM,"Cn1cc(-c2ccc3nc(-c4cccnc4N)n(-c4ccc(CN5CCN(c6nccc(C#N)n6)CC5)cc4)c3n2)ccc1=O [Example 354, 2-(4-(4-(2-(2-Aminopyridin-3-yl)-5-(1-methyl-6-oxo-1,6-dihydropyridin-3-yl)-3H-imidazo[4,5-b]pyridin-3-yl)benzyl)piperazin-1-yl)pyrimidine-4-carbonitrile]"
11,600 to 10000 nM,"C[C@@H]1CN(Cc2ccc(-n3c(-c4cccnc4N)nc4ccc(-c5ccccc5)nc43)cc2)C[C@H](C)N1c1nccc(C#N)n1 [Example 379, 2-((2S,6R)-4-(4-(2-(2-Aminopyridin-3-yl)-5-phenyl-3H-imidazo[4,5-b]pyridin-3-yl)benzyl)-2,6-dimethylpiperazin-1-yl)pyrimidine-4-carbonitrile]"
12,15 to 60 nM,"N#Cc1cc(N2CCN(Cc3ccc(-n4c(-c5cccnc5N)nc5ccc(-c6cccc(Cl)c6)nc54)cc3)CC2)ncn1 [Example 374, 6-(4-(4-(2-(2-Aminopyridin-3-yl)-5-(3-chlorophenyl)-3H-imidazo[4,5-b]pyridin-3-yl)benzyl)piperazin-1-yl)pyrimidine-4-carbonitrile]"
13,< 15 nM,"N#Cc1nccc(NC2CCN(Cc3ccc(-n4c(-c5cccnc5N)nc5ccc(-c6cnsc6)nc54)cc3)CC2)n1 [Example 480, 4-((1-(4-(2-(2-Aminopyridin-3-yl)-5-(isothiazol-4-yl)-3H-imidazo[4,5-b]pyridin-3-yl)benzyl)piperidin-4-yl)amino)pyrimidine-2-carbonitrile]"
14,15 to 60 nM,"Cn1cc(-c2ccc3nc(-c4cccnc4N)n(-c4ccc(CN5CCC(Nc6ccnc(C#N)n6)CC5)cc4)c3n2)ccc1=O [Example 355, 4-((1-(4-(2-(2-Aminopyridin-3-yl)-5-(1-methyl-6-oxo-1,6-dihydropyridin-3-yl)-3H-imidazo[4,5-b]pyridin-3-yl)benzyl)piperidin-4-yl)amino)pyrimidine-2-carbonitrile]"
15,< 15 nM,"N#Cc1nccc(N2CC3(CCN(Cc4ccc(-n5c(-c6cccnc6N)nc6ccc(-c7ccccc7)nc65)cc4)CC3)C2)n1 [Example 361, 4-(7-(4-(2-(2-Aminopyridin-3-yl)-5-phenyl-3H-imidazo[4,5-b]pyridin-3-yl)benzyl)-2,7-diazaspiro[3.5]nonan-2-yl)pyrimidine-2-carbonitrile]"

# Same assay, conditions: competitive tracer displacement in living cells, read-out: AKT1 E17K IC50
row,IC50,Compound
1,600 to 10000 nM,"N#Cc1ccc(C(=O)NCc2ccc(-n3c(-c4cccnc4N)nc4cc(-c5ccccc5)cnc43)cc2)cn1 [Example 106, N-(4-(2-(2-Aminopyridin-3-yl)-6-phenyl-3H-imidazo[4,5-b]pyridin-3-yl)benzyl)-6-cyanonicotinamide]"
2,15 to 60 nM,"N#Cc1cc(C(=O)N2CCN(Cc3ccc(-n4c(-c5cccnc5N)nc5ccc(-c6ccccc6)nc54)cc3)CC2)ccn1 [Example 172, 4-(4-(4-(2-(2-Aminopyridin-3-yl)-5-phenyl-3H-imidazo[4,5-b]pyridin-3-yl)benzyl)piperazine-1-carbonyl)picolinonitrile]"
3,< 15 nM,"N#Cc1ccnc(NC2CCN(Cc3ccc(-n4c(-c5cccnc5N)nc5ccc(-c6ccccc6F)nc54)cc3)CC2)n1 [Example 313, 2-((1-(4-(2-(2-Aminopyridin-3-yl)-5-(2-fluorophenyl)-3H-imidazo[4,5-b]pyridin-3-yl)benzyl)piperidin-4-yl)amino)pyrimidine-4-carbonitrile]"
4,600 to 10000 nM,"N#Cc1cnnc(N2CCN(Cc3ccc(-n4c(-c5cccnc5N)nc5cccnc54)cc3)CC2)c1 [Example 22, 6-(4-(4-(2-(2-Aminopyridin-3-yl)-3H-imidazo[4,5-b]pyridin-3-yl)benzyl)piperazin-1-yl)pyridazine-4-carbonitrile]"
5,600 to 10000 nM,"N#Cc1cc(C(=O)N2CCN(Cc3ccc(-n4c(-c5cccnc5N)nc5cccnc54)cc3)CC2)ccn1 [Example 109, 4-(4-(4-(2-(2-Aminopyridin-3-yl)-3H-imidazo[4,5-b]pyridin-3-yl)benzyl)piperazine-1-carbonyl)picolinonitrile]"
6,< 15 nM,"CC(=O)Nc1cccc(-c2ccc3nc(-c4cccnc4N)n(-c4ccc(CN5CCN(c6nccc(C#N)n6)CC5)cc4)c3n2)c1 [Example 46, N-(3-(2-(2-Aminopyridin-3-yl)-3-(4-((4-(4-cyanopyrimidin-2-yl)piperazin-1-yl)methyl)phenyl)-3H-imidazo[4,5-b]pyridin-5-yl)phenyl)acetamide]"
7,600 to 10000 nM,"N#Cc1ccc(C(=O)N2CCN(Cc3ccc(-n4c(-c5cccnc5N)nc5cccnc54)cc3)CC2)cn1 [Example 102, 5-(4-(4-(2-(2-Aminopyridin-3-yl)-3H-imidazo[4,5-b]pyridin-3-yl)benzyl)piperazine-1-carbonyl)picolinonitrile]"
8,600 to 10000 nM,"N#Cc1ncccc1C(=O)NCc1ccc(-n2c(-c3cccnc3N)nc3cccnc32)cc1 [Example 98, N-(4-(2-(2-Aminopyridin-3-yl)-3H-imidazo[4,5-b]pyridin-3-yl)benzyl)-2-cyanonicotinamide]"
9,< 15 nM,"N#Cc1nccc(N2CCN(Cc3ccc(-n4c(-c5cccnc5N)nc5ccc(-c6ccccc6)nc54)cc3)CC2)n1 [Example 49, 4-(4-(4-(2-(2-Aminopyridin-3-yl)-5-phenyl-3H-imidazo[4,5-b]pyridin-3-yl)benzyl)piperazin-1-yl)pyrimidine-2-carbonitrile]"
10,< 15 nM,"N#Cc1ncnc(N2CC3(CN(Cc4ccc(-n5c(-c6cccnc6N)nc6ccc(-c7ccccc7)nc65)cc4)C3)C2)n1 [Example 303, 4-(6-(4-(2-(2-Aminopyridin-3-yl)-5-phenyl-3H-imidazo[4,5-b]pyridin-3-yl)benzyl)-2,6-diazaspiro[3.3]heptan-2-yl)-1,3,5-triazine-2-carbonitrile]"
